Test results taken from US9434822B2, “Block copolymer, micelle preparation, and anticancer agent containing the same as active ingredient” (Nippon Kayaku Kabushiki Kaisha, priority 2004, dated 2016).

Tests used:
[1] = test system: Mouse colon cancer Colon 26 cells; assay: In vivo antitumor effect on Colon 26; conditions: i.v. 3 times at 4-day intervals, Day 11 after administration
Procedure: Mouse colon cancer Colon 26 cells were transplanted subcutaneously in the back of female CDF1 mouse, and after the volume of the tumor reached about 100 mm^3, the micelle preparation of Example 4, or paclitaxel alone as the control drug, was administered via a mouse caudal vein into the mouse 3 times at 4-day intervals, to examine the effect thereof on advanced cancer. The micelle preparation had been diluted with 5% glucose solution to form a solution containing paclitaxel at a concentration of 3 mg/mL. Paclitaxel for use as the sole regimen was dissolved in ethanol and mixed with an equal volume of Cremophor (manufactured by Sigma) to prepare a solution containing paclitaxel at a concentration of 30 mg/mL, and the resulting preparation was diluted with physiological saline to 3 mg/mL just before administration. The antitumor effect of each drug was judged in percentage (T/C %) of the average tumor volume of the group which was given the drug on Day 11 after administration, relative to the average tumor volume of the group which was not given the drug. A lower numerical value is indicative of higher effect.

[2] = Paclitaxel levels in mouse plasma; type: in vivo; conditions: female, intravenous, 50 mg/kg i.v., Colon 26-bearing CDF1 mice
Procedure: (§1) Each drug was prepared according to the same method as in Test Example 2 (in vivo antitumor effect on Colon 26). A micelle preparation containing paclitaxel, or paclitaxel alone, each at a dose level of 50 mg/kg, was administered via a mouse caudal vein into female CDF1 mouse transplanted with mouse colon cancer Colon 26 in the back, and after a predetermined time, whole blood was collected through an armpit artery. 0.01 mL of plasma obtained by centrifugation was deproteinized (3 times) with 0.2 mL of water and 1 mL of acetonitrile and then subjected to liquid/liquid extraction by adding 2 mL of t-butyl methyl ether. The organic layer was recovered, evaporated into dryness, dissolved in 0.4 mL of dissolving liquid for HPLC, and measured for its paclitaxel concentration by HPLC. Separately, the tumor was homogenized with 0.5% acetic acid to prepare 1% tumor homogenate, and 0.1 mL of 1% tumor homogenate was deproteinized (3 times) with 0.1 mL of water and 1 mL of acetonitrile and subjected to liquid/liquid extraction by adding 2 mL of t-butyl methyl ether. The organic layer was concentrated and dissolved in 0.4 mL of dissolving liquid for HPLC and measured for its paclitaxel concentration by HPLC.

[3] = Paclitaxel levels in mouse tumor; type: in vivo; conditions: female, CDF1, mouse, tumor (Colon 26), intravenous, 50 mg/kg i.v., Colon 26 tumor
Procedure: as §1

[4] = test system: female CDF1 mice; assay: Observation of peripheral nerve damage to mice (stretch reflex); type: in vivo, mouse; conditions: 30 mg/kg in terms of paclitaxel, i.v. for 5 consecutive days, hind limb
Procedure: The micelle preparation of the present invention, or paclitaxel alone, was administered via a mouse caudal vein to female CDF1 mice for 5 consecutive days, and the stretch reflex of the mouse hind limb was observed as an indicator of the peripheral nerve damage caused by paclitaxel. Each drug was prepared in the same manner as in Test Example 2 (in vivo antitumor effect on Colon 26). The dose was 30 mg/kg in terms of paclitaxel.

- concentration at 0.083 h ([2]; 0.083 hours): 59300 ng/mL
- concentration at 0.5 h ([2]; 0.5 hours): 31900 ng/mL
- concentration at 2 h ([2]; 2 hours): 14800 ng/mL
- concentration at 6 h ([2]; 6 hours): 710 ng/mL
- concentration at 0.083 h ([3]; 0.083 hours): 7370 ng/mL
- concentration at 0.5 h ([3]; 0.5 hours): 10000 ng/mL
- concentration at 2 h ([3]; 2 hours): 12500 ng/mL
- concentration at 6 h ([3]; 6 hours): 5790 ng/mL
- concentration at 24 h ([3]; 24 hours): 1250 ng/mL
SMILES: CC(=O)O[C@H]1C(=O)[C@@]2(C)[C@H]([C@H](OC(=O)c3ccccc3)[C@]3(O)C[C@H](OC(=O)[C@H](O)[C@@H](NC(=O)c4ccccc4)c4ccccc4)C(C)=C1C3(C)C)[C@]1(OC(C)=O)CO[C@@H]1C[C@@H]2O [Paclitaxel alone, paclitaxel]
- T/C % (average tumor volume relative to group not given the drug) ([1]; dose 50 mg/kg): 81.6%
- T/C % (average tumor volume relative to group not given the drug) ([1]; dose 100 mg/kg): 52.6%
- Mice with loss of stretch reflex [4]: 3/3
- Mice with loss of stretch reflex ([4]; listed as paclitaxel alone): recognized to lose stretch reflex in every mouse
